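A five-concentration, 48-hour dose response in 96-well plates underlies each endpoint, interpolated linearly between surrounding concentrations. TGI denotes the concentration required for complete inhibition of growth.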
Test system: XF 498 CNS
Assay: NCI-60 cell line screen, 48 h

| Structure (SMILES) | TGI [µM] |
| --- | --- |
| CC(=O)C(N=NC1CCC(S(=O)(=O)NB2N=CS2)CC1)C(=O)Nc1ccccc1C (configuration not stated) | 33.6 |
| NC(=S)N/N=C1\CC(c2ccccc2)Nc2ccccc21 (configuration not stated) | 35.2 |

Source: PubChem BioAssay (NCI)
